Experimental data from US20240277658A1, “NLRP3 ACTIVATORS FOR USE IN THE TREATMENT OF INFECTIOUS DISEASES OR CANCER BY ACTIVATING NLRP3 INFLAMMASOME” (ALBERT-LUDWIGS-UNIVERSITÄT FREIBURG, priority 2020, published 2024).
Several values for one entry are separate records, joined by “and”; a condition that tells them apart may be missing. Identical values can stand only once. Like-named read-outs stand apart in the source and are kept apart here.

How the values were obtained:
NLRP3 inflammasome = biological target: T1, NLRP3 inflammasome (Mus musculus, UniProt Q8R4B8); assay: IL-1β release from LPS-primed BMDCs (ELISA) as readout of NLRP3 inflammasome activation; assay type: cell-based; details: for IL-1β: individual replicate values; for Average (% positive control): IL-1β, positive control EN22 25 μM
T1 construct: endogenous in cells; host or cells: primary mouse bone marrow-derived dendritic cells (BMDCs), LPS-primed
T1 sequence (Q8R4B8 whole entry): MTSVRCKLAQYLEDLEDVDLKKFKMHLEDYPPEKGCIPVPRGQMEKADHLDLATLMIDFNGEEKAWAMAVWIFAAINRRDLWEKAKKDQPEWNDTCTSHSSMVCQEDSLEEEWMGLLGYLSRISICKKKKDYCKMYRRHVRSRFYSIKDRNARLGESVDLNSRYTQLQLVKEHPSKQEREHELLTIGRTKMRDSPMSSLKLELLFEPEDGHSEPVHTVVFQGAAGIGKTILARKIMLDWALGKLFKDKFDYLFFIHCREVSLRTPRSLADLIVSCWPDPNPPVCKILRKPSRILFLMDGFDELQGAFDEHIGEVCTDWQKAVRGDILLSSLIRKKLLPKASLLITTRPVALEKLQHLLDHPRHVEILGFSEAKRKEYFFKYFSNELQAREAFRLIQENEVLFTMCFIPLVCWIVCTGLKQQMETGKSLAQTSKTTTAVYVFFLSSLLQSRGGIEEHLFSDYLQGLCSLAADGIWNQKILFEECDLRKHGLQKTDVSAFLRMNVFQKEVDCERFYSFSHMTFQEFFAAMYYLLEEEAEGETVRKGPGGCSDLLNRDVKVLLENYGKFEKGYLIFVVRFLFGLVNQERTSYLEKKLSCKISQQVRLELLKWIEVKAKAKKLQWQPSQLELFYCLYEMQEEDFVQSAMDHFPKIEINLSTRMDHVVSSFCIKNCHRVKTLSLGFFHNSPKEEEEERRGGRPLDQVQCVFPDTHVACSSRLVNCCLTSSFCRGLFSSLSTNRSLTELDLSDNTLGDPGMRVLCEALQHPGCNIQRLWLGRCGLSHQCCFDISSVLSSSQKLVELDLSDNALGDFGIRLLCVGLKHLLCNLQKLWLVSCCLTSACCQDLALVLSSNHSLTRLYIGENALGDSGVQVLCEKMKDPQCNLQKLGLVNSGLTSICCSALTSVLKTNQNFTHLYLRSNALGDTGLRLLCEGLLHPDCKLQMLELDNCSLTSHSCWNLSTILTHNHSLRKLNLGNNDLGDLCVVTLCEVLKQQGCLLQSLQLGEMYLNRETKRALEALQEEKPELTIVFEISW
Procedure: (§1) This was tested in cell culture in several different in vitro assays classically used to investigate inflammasome activation. These include measuring inflammasome-dependent lytic cell death (pyroptosis) by detecting release of the cytosolic enzyme lactate dehydrogenase (LDH) using a commercial colorimetric assay and release of proinflammatory cytokines like IL-1β by enzyme-linked immunosorbent assay (ELISA), analyzing cleavage and activation of caspase-1 and IL-1β by immunoblotting and immunofluorescence imaging of ASC speck formation. Lytic cell death was determined via LDH release. Assay results for compounds are illustrated in the Tables below, wherein the concentration of the compounds tested had been 50 μM or as indicated in the table, and the concentration of the known activators has been tested with 5 μM of nigericin, 100 μM of each R837 and CL097. For classification of the activity of a given molecule, release of IL-1β was quantified as % of IL-1% of a respective control activator used for the experiment (highlighted in tables with bold letters). The compounds listes in Table 1 were classified into 4 groups depending on their ability to induce the NLRP3 inflammasome activation, assessed by % IL-1β release as compared to the positive control.
(§2) Mouse bone marrow-derived dendritic cells (BMDCs) were isolated from femurs and tibias previously described (Gross, Olaf, 2012, “Measuring the inflammasome”, Methods in molecular biology, Clifton, N.J., 844, pp. 199-222.). In brief, tibias and femurs were carefully removed and put to sterile 70% ethanol for 1 minute. Using a 22-G needle attached to a 20 ml-syringe filled with sterile flushing medium, the bone marrow was pressed through the mesh of a […] cell strainer. The cells were spun down by centrifugation at 400×g, 4° C. for 5 minutes and red blood cells lysed by resuspension and incubation for 5 minutes at room temperature in RBC lysis buffer. 9 ml of flushing medium were added and cells were again spun down by centrifugation at 400×g, 4° C. for 5 minutes. Cells were then resuspended in BMDC medium (RPMI, 10% fetal bovine serum, 1% penicillin-streptomycin100 U/ml, 20 ng/ml recombinant murine GM-CSF), counted and plated at a density of 0.5×10^6 cells ml^−1 in 10 ml medium and incubated at 37° C., 5% CO2 in a humidified incubator. After 2 days, 10 ml of fresh medium were added to the cells and after 4 days, the medium was fully exchanged to 20 ml of fresh medium. The cells were allowed to differentiate for 6 to 8 days before usage.
(§3) For canonical inflammasome activation BMDCs after 7-9 days of differentiation were harvested and counted with a Neubauer Chamber (Hecht Assistant) and the concentration was set to 1 Mio cells ml^−1. 100 μl cell suspension per well were seeded in 96-well plates. The cells were primed with 50 ng ml^−1 E. coli K12 ultra-pure LPS for 3 hours and subsequently treated with canonical inflammasome activators or experimental compounds for 3 hours if not indicated differently (incubation time FIG. 4D, 5, 7, 8, 11, 13-18: 3 h, FIG. 12: 4 h). Concentrations of the stimuli were as follows if not indicated differently: 5 μM nigericin, 100 μM imiquimod (also known as R837), 100 μM CL097, 100 μM R848, […] poly(dA:dT), 300 μg ml^−1 MSU. If an inhibitor was used before stimuli treatment, the inhibitor was added after 2.5 hours of priming and it was incubated for 30 minutes before inflammasome activation. Inhibitors were used as follows: 3 μM MCC950, 45 mM KCl, 30 μM ebselen (2-Phenyl-1,2-benzoselenazol-3-one), 5 μM cytochalasin D (see FIGS. 8, 11, 12 and 17).
(§4) All inflammasome stimulations were performed in three technical replicates for each condition. […]

BMDCs = assay: LDH release (lytic cell death, pyroptosis) from LPS-primed BMDCs; assay type: cell-based, mouse; details: for Average (% positive control): LDH release, positive control EN22 25 μM; for cytotoxicity at 25 µM / cytotoxicity at 50 µM / cytotoxicity at 100 µM: Mus musculus, BMDC; for cytotoxicity at 25 µM / cytotoxicity at 50 µM: EN11 series table
Procedure: as §1, §2, §3, §4

[1] = 25 μM, read-out: Average LDH release (% of max.)
[2] = 25 μM, individual replicate values, read-out: LDH release (% of max.)
[3] = 50 μM, read-out: Average LDH release (% of max.)
[4] = 50 μM, individual replicate values, read-out: LDH release (% of max.)
[5] = 100 μM, individual replicate values, read-out: LDH release (% of max.)
[6] = 100 μM, read-out: Average LDH release (% of max.)

| Structure (SMILES) | Average IL-1β (NLRP3 inflammasome; 25 μM, EN11 series table) [ng/mL] | IL-1β (NLRP3 inflammasome; 25 μM, EN11 series table) | Average IL-1β (NLRP3 inflammasome; 50 μM, EN11 series table) [ng/mL] | IL-1β (NLRP3 inflammasome; 50 μM, EN11 series table) | Average IL-1β (NLRP3 inflammasome; 100 μM) [ng/mL] | IL-1β (NLRP3 inflammasome; 100 μM) | Average (% positive control) (NLRP3 inflammasome; 25 μM) | Average (% positive control) (NLRP3 inflammasome; 50 μM) | Average (% positive control) (NLRP3 inflammasome; 100 μM) | Average (% positive control) (BMDCs; 25 μM) | Average (% positive control) (BMDCs; 50 μM) | Average (% positive control) (BMDCs; 100 μM) | cytotoxicity at 25 µM (BMDCs; [1]) [%] | cytotoxicity at 25 µM (BMDCs; [2]) [%] | cytotoxicity at 50 µM (BMDCs; [3]) [%] | cytotoxicity at 50 µM (BMDCs; [4]) [%] | cytotoxicity at 100 µM (BMDCs; [5]) [%] | cytotoxicity at 100 µM (BMDCs; [6]) [%] |
| --- | --- | --- | --- | --- | --- | --- | --- | --- | --- | --- | --- | --- | --- | --- | --- | --- | --- | --- |
| O=C(Nc1ccc2ncccc2c1)NC1CCCCC1 [EN11-02, 1-cyclohexyl-3-(quin-olin-6-yl)urea] | 0.015 | 0.015 ng/mL | 0.042 | 0.040 ng/mL and 0.050 ng/mL and 0.036 ng/mL | 0.050 | 0.053 ng/mL and 0.052 ng/mL and 0.046 ng/mL | 1.019 | 2.832 | 3.424 | 20.897 | 21.105 | 19.808 | 10.6 | 10.8 | 10.7 | 10.4 | 10.1 | 10.1 |
| O=C(NCCc1ccccc1)Nc1ccc2ncccc2c1 [EN11-07, 1-(2-phenylethyl)-3-(quinolin-6-yl)urea] | 0.000 | 0.000 ng/mL | 0.000 | 0.000 ng/mL | 0.053 | 0.059 ng/mL and 0.052 ng/mL and 0.049 ng/mL | 0.000 | 0.000 | 3.621 | 27.283 | 28.451 | 26.529 | 13.9 | 13.4 | 14.5 | 14.4 | 11.4 | 13.5 |
| O=C(NCc1ccccc1)NCc1ccc2ncccc2c1 [EN11-11, 3-benzyl-1-[(quinolin-6-yl)methyl]urea] | 0.000 | 0.000 ng/mL | 0.014 | 0.021 ng/mL and 0.022 ng/mL and 0.000 ng/mL | 0.011 | 0.012 ng/mL and 0.021 ng/mL and 0.000 ng/mL | 0.000 | 0.975 | 0.761 | 8.741 | 8.257 | 10.723 | 4.45 | – | 4.2 | – | 5.91 | 5.45 |
| O=C(NCCCc1ccccc1)Nc1ccc2ncccc2c1 [EN11-13, 1-(3-phenylpropyl)-3-(quinolin-6-yl)urea] | 0.011 | 0.000 ng/mL and 0.011 ng/mL and 0.023 ng/mL | 0.067 | 0.067 ng/mL | 0.297 | 0.243 ng/mL and 0.331 ng/mL and 0.316 ng/mL | 0.764 | 4.560 | 20.130 | 15.011 | 20.209 | 31.963 | 7.63 | 7.55 | 10.3 | 10.4 | 19.3 | 16.3 |
| O=C(NCc1ccccc1)Nc1ccc2ncccc2c1 [EN11-16, 1-benzyl-3-(quinolin-6-yl)urea] | 0.008 | 0.010 ng/mL and 0.014 ng/mL and 0.000 ng/mL | 0.060 | 0.068 ng/mL and 0.054 ng/mL and 0.058 ng/mL | 0.325 | 0.334 ng/mL and 0.324 ng/mL and 0.315 ng/mL | 0.555 | 4.074 | 22.016 | 15.222 | 16.245 | 24.607 | 7.74 | 7.87 | 8.26 | 8.33 | 14.2 | 12.5 |
